We go through two compounds from patent US20250123282A1, “METHODS FOR EVALUATION AND TREATMENT OF TYROSINE KINASE INHIBITOR (TKI)-RESISTANT ACUTE MYELOID LEUKEMIA” (LOMA LINDA UNIVERSITY, priority 2021, published 2025).

One assay concerns MV4-11 blasts. Briefly: GILT combined with MIF inhibitor or CXCR2 inhibitor on MV4-11 blasts in vitro (FACS). The conditions noted are these: 80 nM GILT, 50 uM SB225002, 3 days. The format is cell-based, human. Here is the method:
Whether targeting the MIF-CXCR2 signaling pathway would effectively treat AML blasts were investigated. First, the combination of GILT with ribosomal protein S19 (RPS19) on MV4-11 blasts was tested in vitro. RPS19, a MIF inhibitor, has been reported to suppress cisplatin-activated MIF-CD74-NFκB signaling pathway in acute kidney injury. […] The combination of 80 nM GILT with 50 uM SB225002, a CXCR2-inhibitor (CXCR2-I) on MV4-11 blasts in vitro were examined. […] The anti-leukemic effect of combining GILT with CXCR2-I on primary BMMNC ex vivo were examined. […] There may be alternative cytokine pathways compensating for the defect of MIF-CXCR2 pathways.
For MIF in vitro experiments, different doses of MIF were added to 1 ml of 1×10^6 MV4-11 cells or RAW264.7 cells for each experimental group in 24-well plates. Two days after the one dose treatment, cells were then collected for either analyses by FACS and qPCR. As combination agents to treat blasts in vitro or ex vivo, one dose of 80 nM GILT with one dose of different inhibitors were added to 1 ml of 1×10^6 MV4-11 cells or 1 ml of 0.5-1×10^6 primary AML BMMNC for each experimental group in 24-well plates. Dose-dependent experiments of CXCR2 inhibitor and NFκB inhibitor with or without 80 nM GILT were performed. […] Three days after the one dose treatment, cells were then collected for either analyses by FACS and qPCR.
Flow Cytometry (FACS). Cells were harvested and examined for the expression of cell surface biomarkers (CD) and intracellular proteins by multichromatic FACS as previously described. About 1×10^4˜10^6 cells in 100 μl FACS buffer (PBS containing 1% FBS and 0.05% sodium azide) were stained with various fluorescence-conjugated antibodies specific for the desired cell surface proteins at 4° C. for 30 min. The surface-stained cells were then fixed and permeabilized using the appropriate reagents (e.g. the BD Pharmingen Cytofix/Cytoperm buffer) and stained with different fluorescence-conjugated antibodies specific for the desired intracellular proteins at 4° C. for 2 hours in the permeabilizing buffer (e.g. the BD Perm/Wash buffer). Concentrations of the Abs were used per the manufacturers' recommendations. Finally, the cells were washed twice in the permeabilizing buffer and twice in the FACS buffer before being analyzed on the BD FACSAria II. Data was analyzed using the FlowJo software (Tree Star Inc., Ashland, OR).

Another assay deals with primary AML BMMNC. Put plainly: Human cytokine proteome profile array of cell-free supernatants from treated primary AML BMMNC. To be noted: 80 nM GILT, 3 days ex vivo, Patient #1 and #2, vs non-treated control. In kind it is cell-based. Here is the method: To identify the protein(s) responsible for initiation of the survival mechanism and subsequent proliferation of AML blasts, human cytokine proteome profile arrays of cell-free supernatants from GILT-treated MV4-11's cultures were performed. […] Under the no treatment (No Tx) condition, MV4-11 releases numerous cytokines such as MIF in their supernatant; however, one dose of GILT-treatment eliminated release of a variety of cytokines such as osteopontin (arrows, FIG. 7A), a protein closely associated with adverse prognosis in AML patients. Next, bone marrow mononuclear cells (BMMNC) from AML patients were treated for 3 days ex vivo.
Human Samples. AML bone marrow (BM) mononuclear cells (BMMNC) (Patients #1-7, Table 4) were obtained from the City of Hope National Medical Center (COHNMC). All donor patients signed an informed consent form. Sample acquisition was approved by the Institutional Review Boards at the LLUMC and the COHNMC in accordance with an assurance filed with and approved by the Department of Health and Human Services, and it met all requirements of the Declaration of Helsinki.
For MIF in vitro experiments, different doses of MIF were added to 1 ml of 1×10^6 MV4-11 cells or RAW264.7 cells for each experimental group in 24-well plates. Two days after the one dose treatment, cells were then collected for either analyses by FACS and qPCR. […]

A further assay deals with MV4-11 cells. Put plainly: Phase-bright imaging of re-growth of TKI-treated MV4-11. In kind it is cell-based, human. The text has this:
To follow the cell fate of TKI-treated MV4-11 and MOLM-14, culturing of blasts were continued by performing medium change every 2-3 days. […] The BAD protein is a pro-apoptotic member of the BCL-2 gene family, which is involved in initiating apoptosis. Dephosphorylated BAD is pro-apoptotic by binding BCL-2 and inactivating BCL-2, while phosphorylated BAD (pBAD) is anti-apoptotic by leaving BCL-2 free to inhibit BAX-triggered apoptosis.
Small Molecular Inhibitors and in vitro & ex vivo Treatment. […] The dose of 80 nM for the four TKIs was selected based on their dose-dependent cytotoxicity in previous reports. […] Both GILT and QUIZ were reported to start to suppress the tumorigenic clustering and c-Kit at the dose of 80 nM. […] The combination of 5 μM 5-Azacitidine (AZA) and 80 nM 1α,25-Dihydroxyvitamin D3 (VD3) was added to the experimental group similar to the previous report. As combination agents to treat blasts in vitro, one dose of 80 nM GILT with one dose of either 100 nM Venetoclax (BCL2 inhibitor), 10 μM (R)-Lisofylline (STAT4 inhibitor), 100 nM AZD1208 (PIM inhibitor), 500 nM PF-06826647 (TYK2 inhibitor), or 500 nM AT9283 (JAK2/3 inhibitor) were added to 1 ml of 1×10^6 cells for each experimental group in 24 well plates. Three days after the one dose treatment, cells were then collected for either analyses by FACS and qPCR, or re-plated into 24 well plates for continued culture. At different time points, re-plated cells were collected for analyses by FACS and qPCR. Medium change was performed every 2-3 days.
Imaging Acquisition. Phase-bright images were taken using an Olympus 1X71 inverted microscope and were processed using an Olympus cellSens Dimension 1.15 Imaging Software.

As to `CCc1nc(C(N)=O)c(Nc2ccc(N3CCC(N4CCN(C)CC4)CC3)c(OC)c2)nc1NC1CCOCC1` [GILT, Gilteritinib], the “percentage of viable CD44+ MV4-11 blasts” value with MV4-11 blasts is listed as 12.2%. For the same compound, the “percentage of Ki67+CD44+ blasts” value with MV4-11 blasts (MV4-11) was 12.2%. Further, the “MIF release increase in the supernatant” value in the assay with primary AML BMMNC is reported as 2.1 fold.
As for `CC(C)(C)c1cc(NC(=O)Nc2ccc(-c3cn4c(n3)sc3cc(OCCN5CCOCC5)ccc34)cc2)no1` [QUIZ, Quizartinib], the “re-growth / tumorigenic clusters of MV4-11” value in the assay with MV4-11 cells (10 days after TKI treatment) is reported as “few newly formed tumorigenic clusters”; in the assay on MV4-11 cells (20 days after TKI treatment), “many tumorigenic clusters”. The “re-growth / relapse of MV4-11” value in the assay with MV4-11 cells (28 days after TKI treatment) is “grew confluent without tumorigenic clusters”.
